One assay deals with IFN-α. Kind of assay: Induction of interferon-α using fresh human whole blood (WB). Format: cell-based. The note with it: three donors, overnight incubation, response as % of 2 μM resiquimod control, read-out: mean pEC50 for IFN-α (converted). The protocol: (§1) Assay for the Induction of Interferon-[…] and TNF-[…] Using Fresh Human Whole Blood (WB)
(§2) Compounds were prepared at 100× required concentration in DMSO in flat-bottom microtitre plates at a volume of 1.5 μL. Columns 1-10 contained a 1 in 4 serial dilution of the test compound. Included on each plate was a serial dilution of the TLR7/8 agonist resiquimod as a standard and Column 11 contained 1.5 μl of 200 μM resiquimod (giving a 2 μM final concentration, used to define the approximate maximal response to resiquimod). Each compound was assayed in duplicate for each donor.
(§3) Blood samples from three human donors were collected into sodium heparin (10 U/ml). 150 μl of whole Blood was dispensed into Col 1 to 11 of assay plates containing 1.5 μl of test compound or standard in DMSO. Plates were placed in an incubator overnight (37° C., 95% air, 5% CO2). Following the overnight incubation, plates were removed from the incubator & mixed on an orbital shaker for approximately 1 minute. 100 μl of 0.9% saline was added to each well and the plates mixed again on an orbital shaker. Plates were then centrifuged (2500 rpm, 10 mins), after which a sample of plasma was removed using a Biomek FX and assayed for both IFN-α and TNF-α using the MSD (Mesoscale Discovery) electrochemiluminescence assay platform. The IFN-α assay was carried out similarly to that described above. The TNF-α assay was carried out as per kit instructions (Cat No K111BHB).
(§4) Cytokine released was expressed as a percentage of the 2 μM resiquimod control (column 11). This percentage was plotted against compound concentration and the pEC50 for the response determined by non-linear least squares curve fitting. For the IFN-α responses, generally a 4 parameter logistic model was selected. For the TNF-α responses where a clear maximum response was obtained (i.e. a well defined plateau in the response was observed) then a 4 parameter model was generally used. If the upper asymptote of the curve wasn't well defined then the curve fitting was generally constrained to a maximal response of 100% (i.e. to the response to 2 μM resiquimod) or to the response of the highest concentration tested if this was greater than the resiquimod response. Some curves were bell shaped for one or both cytokines and the cytokine data on the down slope of the bell shaped response (i.e. concentrations above those giving the maximal response) were generally excluded from the fit, usually with the exception of the concentration immediately above the peak response. Curve fitting thus concentrated on the up slope of the dose response curve.

A further assay concerns TNF-α. Kind of assay: Induction of TNF-α using fresh human whole blood (WB). The note with it: three donors, overnight incubation, response as % of 2 μM resiquimod control, read-out: mean pEC50 for TNF-α (converted). It counts as cell-based. Here is the method: as §1, §2, §3, §4

Where a name gives a salt, the structure may show the parent alone. Bounds are passed on as bounds.

For `COCCc1nc(N)c2[nH]cc(CCCCCN3CC[C@H](F)C3)c2n1` [Example 27, (S)-7-(5-(3-Fluoropyrrolidin-1-yl)pentyl)-2-(2-methoxyethyl)-5H-pyrrolo[3,2-d]pyrimidin-4-amine formate], the EC50 in the assay on IFN-α was at most 5.01 µM; in the assay on TNF-α, at least 5.01 µM.

In the case of `CCCCc1nc(N)c2[nH]cc(CCCCCN3CC[C@H](O)C3)c2n1` [Example 28, (S)-1-(5-(4-Amino-2-butyl-5H-pyrrolo[3,2-d]pyrimidin-7-yl)pentyl)pyrrolidin-3-ol], the values for the EC50 in the assay with IFN-α and in the assay on TNF-α were at most 5.01 µM and at least 5.01 µM, respectively.

With `CCCCc1nc(N)c2[nH]cc(CCCCCN3CC(O)C3)c2n1` [Example 29, 1-(5-(4-Amino-2-butyl-5H-pyrrolo[3,2-d]pyrimidin-7-yl)pentyl)azetidin-3-ol formate], the EC50 with IFN-α is at most 5.01 µM; in the assay with TNF-α it was at least 5.01 µM.

For the compound `COCCc1nc(N)c2[nH]cc(CCCCCCN3CCCCCC3)c2n1` [Example 30, 7-(6-(Azepan-1-yl)hexyl)-2-(2-methoxyethyl)-5H-pyrrolo[3,2-d]pyrimidin-4-amine], the EC50 in the assay on IFN-α was at most 5.01 µM; in the assay on TNF-α, at least 5.01 µM.

For the compound `CCCCc1nc(N)c2[nH]cc(CCCCCCN3CCC(F)CC3)c2n1` [Example 31, 2-Butyl-7-(6-(4-fluoropiperidin-1-yl)hexyl)-5H-pyrrolo[3,2-d]pyrimidin-4-amine], the EC50 is at most 5.01 µM with IFN-α and at least 5.01 µM in the assay with TNF-α.

Regarding `CCCCc1nc(N)c2[nH]cc(CCCCCCN3CC[C@@H](F)C3)c2n1` [Example 32, (R)-2-Butyl-7-(6-(3-fluoropyrrolidin-1-yl)hexyl)-5H-pyrrolo[3,2-d]pyrimidin-4-amine], the EC50 is at most 5.01 µM in the assay with IFN-α and at least 5.01 µM in the assay on TNF-α.

`CCCCc1nc(N)c2[nH]cc(CCCCCCN3CC[C@H](F)C3)c2n1` [Example 33, (S)-2-Butyl-7-(6-(3-fluoropyrrolidin-1-yl)hexyl)-5H-pyrrolo[3,2-d]pyrimidin-4-amine]: the EC50 in the assay on IFN-α was at most 5.01 µM; with TNF-α it was at least 5.01 µM.

As to `CCCCc1nc(N)c2[nH]cc(CCCCCN3CCC[C@@H]3C)c2n1` [Example 34, (S)-2-Butyl-7-(5-(2-methylpyrrolidin-1-yl)pentyl)-5H-pyrrolo[3,2-d]pyrimidin-4-amine], the figures for the EC50 in the assay on IFN-α and in the assay with TNF-α were at most 5.01 µM and at least 5.01 µM, respectively.

As for `CCCCc1nc(N)c2[nH]cc(CCCCCN3CCC[C@H]3C)c2n1` [Example 35, (R)-2-Butyl-7-(5-(2-methylpyrrolidin-1-yl)pentyl)-5H-pyrrolo[3,2-d]pyrimidin-4-amine], the figures for the EC50 in the assay on IFN-α and in the assay with TNF-α were at most 5.01 µM and at least 5.01 µM, respectively.

`CCCCc1nc(N)c2[nH]cc(CCCCCN3CC(C)C3)c2n1` [Example 36, 2-Butyl-7-(5-(3-methylazetidin-1-yl)pentyl)-5H-pyrrolo[3,2-d]pyrimidin-4-amine]: the figures for the EC50 in the assay with IFN-α and in the assay with TNF-α were at most 5.01 µM and at least 5.01 µM, respectively.

On to `CCCCc1nc(N)c2[nH]cc(CCCCCN3CC(F)C3)c2n1` [Example 37, 2-Butyl-7-(5-(3-fluoroazetidin-1-yl)pentyl)-5H-pyrrolo[3,2-d]pyrimidin-4-amine], for which the EC50 in the assay on IFN-α is at most 5.01 µM; in the assay on TNF-α, at least 5.01 µM.

Take `CCCCc1nc(N)c2[nH]c(C)c(CCCCCN3CCC(F)CC3)c2n1` [Example 39, 2-Butyl-7-(5-(4-fluoropiperidin-1-yl)pentyl)-6-methyl-5H-pyrrolo[3,2-d]pyrimidin-4-amine]: the EC50 in the assay on IFN-α was at most 5.01 µM; with TNF-α it was at least 5.01 µM.

As for `CCCCc1nc(N)c2[nH]c(C)c(CCCCCN3CC[C@H](F)C3)c2n1` [Example 40, (S)-2-Butyl-7-(5-(3-fluoropyrrolidin-1-yl)pentyl)-6-methyl-5H-pyrrolo[3,2-d]pyrimidin-4-amine], the EC50 with IFN-α is at most 5.01 µM; in the assay with TNF-α, at least 5.01 µM.

With `CCCCc1nc(N)c2[nH]c(C)c(CCCCCN3CC[C@@H](F)C3)c2n1` [Example 41, (R)-2-Butyl-7-(5-(3-fluoropyrrolidin-1-yl)pentyl)-6-methyl-5H-pyrrolo[3,2-d]pyrimidin-4-amine], the EC50 with IFN-α is at most 5.01 µM; in the assay with TNF-α, at least 5.01 µM.

As to `CCCCc1nc(N)c2[nH]c(C)c(CCCCCN3CC(F)C3)c2n1` [Example 42, 2-Butyl-7-(5-(3-fluoroazetidin-1-yl)pentyl)-6-methyl-5H-pyrrolo[3,2-d]pyrimidin-4-amine], the EC50 was at most 5.01 µM in the assay with IFN-α and at least 5.01 µM in the assay with TNF-α.

Turning to `COCCc1nc(N)c2[nH]cc(CCCCCN3CCCC3)c2n1` [Example 43, 2-(2-Methoxyethyl)-7-(5-(pyrrolidin-1-yl)pentyl)-5H-pyrrolo[3,2-d]pyrimidin-4-amine], the EC50 in the assay on IFN-α is at most 5.01 µM; with TNF-α, at least 5.01 µM.

Source of the values: patent publication US9907847B2, “Pyrrolopyrimidines as therapeutic agents for the treatment of diseases” (GlaxoSmithKline LLC, priority 2012, dated 2018).
